From article PMC5218480 (PLoS ONE, 2017)

Test system: MV-4-11 cells
Test: Gene expression microarray analysis (Affymetrix PrimeView) and GSEA
Format: cell-based, human
Set-up: RFU PODN (11730768_x_at) / Fold change /veh PODN (11730768_x_at) / RFU LINC00158 (11744669_a_at) / Fold change /veh LINC00158 (11744669_a_at) / RFU DUSP10 (11751237_a_at) / Fold change /veh DUSP10 (11751237_a_at) / RFU ID3 (11757404_x_at) / Fold change /veh ID3 (11757404_x_at) / RFU PLEKHG5 (11737974_s_at) / Fold change /veh PLEKHG5 (11737974_s_at) / RFU LRRC4B (11730491_at) / Fold change /veh LRRC4B (11730491_at) / RFU GIMAP4 (11747438_a_at) / Fold change /veh GIMAP4 (11747438_a_at) / RFU KRT8 (11758183_x_at) / Fold change /veh KRT8 (11758183_x_at) / RFU CNN1 (11734310_a_at) / Fold change /veh CNN1 (11734310_a_at) / RFU VPS37D (11726825_at) / Fold change /veh VPS37D (11726825_at) / RFU C10orf10 (11716522_x_at) / Fold change /veh C10orf10 (11716522_x_at) / RFU KIR2DL2 /// KIR2DL4 /// KIR2DL5A /// KIR2DL5B /// KIR2DS1 /// KIR2DS2 /// KIR2DS3 /// KIR2DS4 /// KIR3DL3 /// KIR3DL3 /// KIR3DS1 (11738374_at) / Fold change /veh KIR2DL2 /// KIR2DL4 /// KIR2DL5A /// KIR2DL5B /// KIR2DS1 /// KIR2DS2 /// KIR2DS3 /// KIR2DS4 /// KIR3DL3 /// KIR3DL3 /// KIR3DS1 (11738374_at) / RFU C1QL1 (11718748_at) / Fold change /veh C1QL1 (11718748_at) / RFU TMPRSS4 (11747572_a_at) / Fold change /veh TMPRSS4 (11747572_a_at) / RFU HAMP (11756126_x_at) / Fold change /veh HAMP (11756126_x_at) / RFU RNFT2 (11725882_a_at) / Fold change /veh RNFT2 (11725882_a_at) / RFU NR4A2 (11747474_a_at) / Fold change /veh NR4A2 (11747474_a_at) / RFU ABCC12 (11746883_a_at) / Fold change /veh ABCC12 (11746883_a_at) / RFU TMEM136 (11760407_x_at) / Fold change /veh TMEM136 (11760407_x_at) / RFU CLDN22 /// WWC2 (11732394_at) / Fold change /veh CLDN22 /// WWC2 (11732394_at) / RFU HLA-DPB1 (11760878_x_at) / Fold change /veh HLA-DPB1 (11760878_x_at) / RFU SPINT1 (11716480_a_at) / Fold change /veh SPINT1 (11716480_a_at) / RFU GAP43 (11754022_s_at) / Fold change /veh GAP43 (11754022_s_at) / RFU A4GNT (11735810_at) / Fold change /veh A4GNT (11735810_at) / RFU PRB3 (11715151_x_at) / Fold change /veh PRB3 (11715151_x_at) / RFU TUBB4B (11761932_at) / Fold change /veh TUBB4B (11761932_at) / RFU CAPN14 (11732068_a_at) / Fold change /veh CAPN14 (11732068_a_at) / RFU TMCC2 (11721928_a_at) / Fold change /veh TMCC2 (11721928_a_at) / RFU IRGQ (11745062_a_at) / Fold change /veh IRGQ (11745062_a_at) / RFU FAM174B (11720279_a_at) / Fold change /veh FAM174B (11720279_a_at) / RFU TMPRSS4 (11748680_a_at) / Fold change /veh TMPRSS4 (11748680_a_at) / RFU FAM212B (11763350_a_at) / Fold change /veh FAM212B (11763350_a_at) / RFU PLEKHG5 (11743358_a_at) / Fold change /veh PLEKHG5 (11743358_a_at) / RFU ZSCAN30 (11745921_a_at) / Fold change /veh ZSCAN30 (11745921_a_at) / RFU CMKLR1 (11741424_a_at) / Fold change /veh CMKLR1 (11741424_a_at) / RFU LOC101060620 /// MAPK8IP1 (11723275_at) / Fold change /veh LOC101060620 /// MAPK8IP1 (11723275_at) / RFU SPTSSB (11747773_x_at) / Fold change /veh SPTSSB (11747773_x_at) / RFU PRSS12 (11739890_at) / Fold change /veh PRSS12 (11739890_at) / RFU BIN1 (11741810_x_at) / Fold change /veh BIN1 (11741810_x_at) / RFU WNT11 (11732464_a_at) / Fold change /veh WNT11 (11732464_a_at) / RFU C10orf10 (11716521_a_at) / Fold change /veh C10orf10 (11716521_a_at) / RFU C5orf56 (11738089_at) / Fold change /veh C5orf56 (11738089_at) / RFU CYB561 (11721691_x_at) / Fold change /veh CYB561 (11721691_x_at) / RFU ANKRD19P (11752326_a_at) / Fold change /veh ANKRD19P (11752326_a_at) / RFU OR2T12 /// OR2T33 /// OR2T8 (11738714_s_at) / Fold change /veh OR2T12 /// OR2T33 /// OR2T8 (11738714_s_at) / RFU VCAN (11748164_a_at) / Fold change /veh VCAN (11748164_a_at) / RFU JSRP1 (11732532_at) / Fold change /veh JSRP1 (11732532_at) / RFU KRTAP10-11 (11738290_x_at) / Fold change /veh KRTAP10-11 (11738290_x_at) / RFU MYO3A (11730013_a_at) / Fold change /veh MYO3A (11730013_a_at) / RFU EBF3 (11725865_a_at) / Fold change /veh EBF3 (11725865_a_at) / RFU CAMK2N1 (11719241_x_at) / Fold change /veh CAMK2N1 (11719241_x_at) / RFU C5orf56 (11738088_a_at) / Fold change /veh C5orf56 (11738088_a_at) / RFU OLFML3 (11715873_a_at) / Fold change /veh OLFML3 (11715873_a_at) / RFU LOC100653217 /// NTM (11731650_a_at) / Fold change /veh LOC100653217 /// NTM (11731650_a_at) / RFU MAPK11 (11762145_a_at) / Fold change /veh MAPK11 (11762145_a_at) / RFU FIZ1 (11724087_x_at) / Fold change /veh FIZ1 (11724087_x_at) / RFU OASL (11726364_x_at) / Fold change /veh OASL (11726364_x_at) / RFU SOX15 (11748057_x_at) / Fold change /veh SOX15 (11748057_x_at) / RFU CD79A (11719716_a_at) / Fold change /veh CD79A (11719716_a_at) / RFU HIST1H1D (11736915_at) / Fold change /veh HIST1H1D (11736915_at) / RFU CASKIN2 (11723855_a_at) / Fold change /veh CASKIN2 (11723855_a_at) / RFU LOC730098 (11760151_x_at) / Fold change /veh LOC730098 (11760151_x_at) / RFU OR4N2 (11742367_at) / Fold change /veh OR4N2 (11742367_at) / RFU PRRT2 (11749266_a_at) / Fold change /veh PRRT2 (11749266_a_at) / RFU SNX32 (11753110_a_at) / Fold change /veh SNX32 (11753110_a_at) / RFU CDHR5 (11726645_a_at) / Fold change /veh CDHR5 (11726645_a_at) / RFU RCAN1 (11760418_a_at) / Fold change /veh RCAN1 (11760418_a_at) / RFU FAM167A (11723789_a_at) / Fold change /veh FAM167A (11723789_a_at) / RFU FAM26E (11764081_at) / Fold change /veh FAM26E (11764081_at) / RFU ISYNA1 (11749810_s_at) / Fold change /veh ISYNA1 (11749810_s_at) / RFU ACY1 (11761880_at) / Fold change /veh ACY1 (11761880_at) / RFU 11764098_at / Fold change /veh 11764098_at / RFU SAMD14 (11745864_x_at) / Fold change /veh SAMD14 (11745864_x_at) / RFU NPB (11741838_a_at) / Fold change /veh NPB (11741838_a_at) / RFU TMPRSS6 (11731388_a_at) / Fold change /veh TMPRSS6 (11731388_a_at) / RFU KRTAP10-2 (11738614_at) / Fold change /veh KRTAP10-2 (11738614_at) / RFU ARHGAP8 /// PRR5-ARHGAP8 (11727945_x_at) / Fold change /veh ARHGAP8 /// PRR5-ARHGAP8 (11727945_x_at) / RFU KRTAP5-7 /// NADSYN1 (11734609_at) / Fold change /veh KRTAP5-7 /// NADSYN1 (11734609_at) / RFU RASL12 (11751679_a_at) / Fold change /veh RASL12 (11751679_a_at) / RFU CDKN2B (11736163_a_at) / Fold change /veh CDKN2B (11736163_a_at) / RFU PRF1 (11729649_at) / Fold change /veh PRF1 (11729649_at) / RFU, ZNF638 /// ZNF638-IT1 / Fold change vs veh, ZNF638 /// ZNF638-IT1 / RFU, PANK3 / Fold change vs veh, PANK3 / RFU, SH3YL1 / Fold change vs veh, SH3YL1 / RFU, ZEB2 / Fold change vs veh, ZEB2 / RFU, NRIP1 / Fold change vs veh, NRIP1 / RFU, PTTG1IP / Fold change vs veh, PTTG1IP / RFU, CAPN2 / Fold change vs veh, CAPN2 / RFU, MED14 / Fold change vs veh, MED14 / RFU, SNORA58 / Fold change vs veh, SNORA58 / RFU, C1orf63 / Fold change vs veh, C1orf63 / RFU, LRRFIP1 / Fold change vs veh, LRRFIP1 / RFU, NDUFAF7 / Fold change vs veh, NDUFAF7 / RFU, SLC12A2 / Fold change vs veh, SLC12A2 / RFU, IBTK / Fold change vs veh, IBTK / RFU, ESF1 / Fold change vs veh, ESF1 / Fold change vs veh, TMEM50B / RFU, TAOK1 / Fold change vs veh, TAOK1 / RFU, ACBD3 / Fold change vs veh, ACBD3 / RFU, TMA16 / Fold change vs veh, TMA16 / RFU, RWDD3 / Fold change vs veh, RWDD3 / RFU, BCAT1 / Fold change vs veh, BCAT1 / RFU, EDEM3 / Fold change vs veh, EDEM3 / RFU, TMEM33 / Fold change vs veh, TMEM33 / RFU, WDR75 / Fold change vs veh, WDR75 / RFU, AHCTF1 / Fold change vs veh, AHCTF1 / RFU, TFRC / Fold change vs veh, TFRC / RFU, ZDHHC17 / Fold change vs veh, ZDHHC17 / RFU, NOM1 / Fold change vs veh, NOM1 / RFU, ARL8B / Fold change vs veh, ARL8B / RFU, ZBTB11 / Fold change vs veh, ZBTB11 / RFU, TAMM41 / Fold change vs veh, TAMM41 / RFU, KIAA1704 /// LOC100996395 / Fold change vs veh, KIAA1704 /// LOC100996395 / RFU, ING1 / Fold change vs veh, ING1 / RFU, TRMT61B / Fold change vs veh, TRMT61B / RFU, FUBP3 / Fold change vs veh, FUBP3 / RFU, TP53 / Fold change vs veh, TP53 / RFU, TNKS2 / Fold change vs veh, TNKS2 / RFU, ZFP14 / Fold change vs veh, ZFP14 / RFU, ACTR2 / Fold change vs veh, ACTR2 / RFU, PPP3R1 / Fold change vs veh, PPP3R1 / RFU, PIK3R1 / Fold change vs veh, PIK3R1 / RFU, HNRNPA1 / Fold change vs veh, HNRNPA1 / RFU, RNF170 / Fold change vs veh, RNF170 / RFU, ZNF28 / Fold change vs veh, ZNF28 / RFU, RNGTT / Fold change vs veh, RNGTT / RFU, OGT / Fold change vs veh, OGT / RFU, BRD1 / Fold change vs veh, BRD1 / RFU, MARS / Fold change vs veh, MARS / RFU, ZNF655 / Fold change vs veh, ZNF655 / RFU, FAHD1 / Fold change vs veh, FAHD1 / RFU, BDP1 / Fold change vs veh, BDP1 / RFU, LRRCC1 / Fold change vs veh, LRRCC1 / RFU, ARID1A / Fold change vs veh, ARID1A / RFU, ZNF146 / Fold change vs veh, ZNF146 / RFU, ZNF330 / Fold change vs veh, ZNF330 / RFU, GPN3 / Fold change vs veh, GPN3 / RFU, C9orf123 / Fold change vs veh, C9orf123 / RFU, N4BP2L2 / Fold change vs veh, N4BP2L2 / RFU, ARFIP1 / Fold change vs veh, ARFIP1 / RFU, FAM179B / Fold change vs veh, FAM179B / RFU, BCL10 / Fold change vs veh, BCL10 / RFU, UHRF1BP1L / Fold change vs veh, UHRF1BP1L / RFU, BET1 / Fold change vs veh, BET1 / RFU, CNOT2 / Fold change vs veh, CNOT2 / RFU, ZNF268 / Fold change vs veh, ZNF268 / Fold change vs veh, ZNF507 / RFU, DGCR2 / Fold change vs veh, DGCR2 / RFU, WDSUB1 / Fold change vs veh, WDSUB1 / Fold change vs veh, HSP90B1 /// MIR3652 / RFU, ADSS / Fold change vs veh, ADSS / RFU, GK / Fold change vs veh, GK / RFU, ZNF148 / Fold change vs veh, ZNF148 / RFU, TAF9 / Fold change vs veh, TAF9 / RFU, SLC1A5 / Fold change vs veh, SLC1A5 / RFU, SLMO2 / Fold change vs veh, SLMO2 / RFU, ABCC4 / Fold change vs veh, ABCC4 / RFU, LOC101060439 /// RAP1B / Fold change vs veh, LOC101060439 /// RAP1B / RFU, RFX7 / Fold change vs veh, RFX7 / RFU, GTPBP10 / Fold change vs veh, GTPBP10 / RFU, CNEP1R1 / Fold change vs veh, CNEP1R1 / RFU, BIVM-ERCC5 /// ERCC5 / Fold change vs veh, BIVM-ERCC5 /// ERCC5 / RFU, ILF3 / Fold change vs veh, ILF3 / RFU 11762660_at / Fold change /veh 11762660_at / RFU VCAN (11757783_s_at) / Fold change /veh VCAN (11757783_s_at) / RFU DDX43 (11728927_at) / Fold change /veh DDX43 (11728927_at) / RFU KRT8 (11758188_x_at) / Fold change /veh KRT8 (11758188_x_at) / RFU NKD1 (11759106_at) / Fold change /veh NKD1 (11759106_at) / RFU SRD5A1 (11742802_a_at) / Fold change /veh SRD5A1 (11742802_a_at) / RFU TPSAB1 /// TPSB2 (11721975_s_at) / Fold change /veh TPSAB1 /// TPSB2 (11721975_s_at) / RFU GSTM3 (11746129_a_at) / Fold change /veh GSTM3 (11746129_a_at) / RFU IL23R (11737362_x_at) / Fold change /veh IL23R (11737362_x_at) / RFU TMEM51 (11727254_a_at) / Fold change /veh TMEM51 (11727254_a_at) / RFU PIWIL2 (11732686_x_at) / Fold change /veh PIWIL2 (11732686_x_at) / RFU ORM1 (11744905_x_at) / Fold change /veh ORM1 (11744905_x_at) / RFU CCDC152 (11743942_at) / Fold change /veh CCDC152 (11743942_at) / RFU ECM1 (11717891_a_at) / Fold change /veh ECM1 (11717891_a_at) / RFU IL23R (11748794_a_at) / Fold change /veh IL23R (11748794_a_at) / RFU TNFAIP8L3 (11732012_x_at) / Fold change /veh TNFAIP8L3 (11732012_x_at) / RFU MBOAT4 (11741988_at) / Fold change /veh MBOAT4 (11741988_at) / RFU 11764193_at / Fold change /veh 11764193_at / RFU TMEM53 (11763286_at) / Fold change /veh TMEM53 (11763286_at) / RFU MAGEB2 (11727129_at) / Fold change /veh MAGEB2 (11727129_at) / RFU TMEM200A (11744735_a_at) / Fold change /veh TMEM200A (11744735_a_at) / RFU CCDC152 (11751479_a_at) / Fold change /veh CCDC152 (11751479_a_at) / RFU FAM211A (11726209_a_at) / Fold change /veh FAM211A (11726209_a_at) / RFU RGS16 (11746705_a_at) / Fold change /veh RGS16 (11746705_a_at) / RFU VCAN (11755009_s_at) / Fold change /veh VCAN (11755009_s_at) / RFU RHOB (11743442_s_at) / Fold change /veh RHOB (11743442_s_at) / RFU RGS16 (11720943_a_at) / Fold change /veh RGS16 (11720943_a_at) / RFU RGS16 (11720944_at) / Fold change /veh RGS16 (11720944_at) / RFU, VPS4B / Fold change vs veh, VPS4B / RFU, CREB1 / Fold change vs veh, CREB1 / RFU, DNAJC13 / Fold change vs veh, DNAJC13 / RFU, GNAQ / Fold change vs veh, GNAQ / RFU, CDK5R1 / Fold change vs veh, CDK5R1 / RFU, ZRANB3 / Fold change vs veh, ZRANB3 / RFU, CUL4A / Fold change vs veh, CUL4A / RFU, CCNY / Fold change vs veh, CCNY / RFU, UFL1 / Fold change vs veh, UFL1 / RFU, COG3 / Fold change vs veh, COG3 / RFU, DIAPH2 / Fold change vs veh, DIAPH2 / RFU, SKA2 / Fold change vs veh, SKA2 / RFU, AFF3 / Fold change vs veh, AFF3 / RFU, LMF1 / Fold change vs veh, LMF1 / RFU, IPO11 / Fold change vs veh, IPO11 / RFU, DFFB / Fold change vs veh, DFFB / RFU, FOXP1 / Fold change vs veh, FOXP1 / RFU, CARD8 / Fold change vs veh, CARD8 / RFU, STRN3 / Fold change vs veh, STRN3 / RFU, ADK / Fold change vs veh, ADK / RFU, RASSF2 / Fold change vs veh, RASSF2 / RFU, WIPF1 / Fold change vs veh, WIPF1 / RFU, LARP1B / Fold change vs veh, LARP1B / RFU, RASA1 / Fold change vs veh, RASA1 / RFU, RB1 / Fold change vs veh, RB1 / RFU, PPFIA1 / Fold change vs veh, PPFIA1 / RFU, MAT2A / Fold change vs veh, MAT2A / RFU, CCT5 / Fold change vs veh, CCT5 / RFU, WDR92 / Fold change vs veh, WDR92 / RFU, CUX1 / Fold change vs veh, CUX1 / RFU, TTC7A / Fold change vs veh, TTC7A / RFU, TMEM135 / Fold change vs veh, TMEM135 / RFU, DEPTOR / Fold change vs veh, DEPTOR / RFU, CPM / Fold change vs veh, CPM / RFU, DNAJB6 / Fold change vs veh, DNAJB6 / RFU, CACNA2D3 / Fold change vs veh, CACNA2D3 / RFU, DTX4 / Fold change vs veh, DTX4 / RFU, TFCP2 / Fold change vs veh, TFCP2 / RFU, GMCL1 /// GMCL1P1 / Fold change vs veh, GMCL1 /// GMCL1P1 / RFU, AEBP2 / Fold change vs veh, AEBP2 / RFU, SNHG1 /// SNORD22 /// SNORD25 /// SNORD26 /// SNORD27 /// SNORD28 /// SNORD29 /// SNORD31 / Fold change vs veh, SNHG1 /// SNORD22 /// SNORD25 /// SNORD26 /// SNORD27 /// SNORD28 /// SNORD29 /// SNORD31 / Fold change (Aza/veh), C12orf56 (ProbeSet 11735607_a_at) / Fold change (ACY-1035/veh), C12orf56 (ProbeSet 11735607_a_at) / Fold change (Aza/veh), FGFR1OP (ProbeSet 11751329_s_at) / Fold change (ACY-1035/veh), FGFR1OP (ProbeSet 11751329_s_at) / Fold change (Aza/veh), VPS36 (ProbeSet 11739960_a_at) / Fold change (ACY-1035/veh), VPS36 (ProbeSet 11739960_a_at) / RFU SYPL1 (11715823_x_at) / Fold change /veh SYPL1 (11715823_x_at) / RFU IGFBP7 (11715501_s_at) / Fold change /veh IGFBP7 (11715501_s_at) / RFU REEP3 (11722064_at) / Fold change /veh REEP3 (11722064_at) / RFU IGLL1 (11728026_x_at) / Fold change /veh IGLL1 (11728026_x_at): dose or concentration left out as unconfirmed
Details: ProbeSet 11728676_at; LIST B

## Nc1ccc(-c2cccs2)cc1NC(=O)c1ccc2c(c1)cc(C1CC1)n2CCN1CCOCC1 [ACY-1035]
  Fold change vs veh, MED14: 0.95
